Test results from PMC4585737, “Lipoproteins/peptides are sepsis-inducing toxins from bacteria that can be neutralized by synthetic anti-endotoxin peptides” (Scientific Reports, 2015).
Entries after “also recorded” stand apart in the source; their conditions may differ. Where no end group is shown, it is not given here. [ ]: non-standard residue; d: D form.

Key:
human mononuclear cells = test: TNFα production in human mononuclear cells (MNC) stimulated by LP, LTA or PGN, and its inhibition by SALP; type: cell-based; conditions: for stimulation of MNC (TNFα induction) compared with LPS / TNFα when adding 100 ng/ml of LP / concentration necessary to induce an observable TNFα secretion: human MNC; for stimulation of MNC (TNFα induction) compared with LPS: 4 h, ELISA
Experimental: The stimulation of MNC was performed as described previously. Briefly, MNC were isolated from heparinized blood of healthy donors by the Hypaque-Ficoll density gradient method. The cell number was equilibrated at 5 × 10^6 cells/ml RPMI 1640 containing 2 mM L-glutamine, 100 U/ml penicillin and 100 μg/ml streptomycin. For stimulation, 200 μl/well MNC were transferred into 96-well culture plates. The stimuli were serially diluted in RPMI 1640 and added to the cultures at 20 μl per well. The cultures were incubated for 4 h at 37 °C under 5% CO2. Cell-free supernatants were collected after centrifugation of the culture plates for 10 min at 400 × g and stored at −20 °C until the determination of the cytokine content. Immunological determination of TNFα in the cell supernatant was performed in a sandwich-ELISA as described earlier (OptEIA; BD, Heidelberg, Germany). TNFα was determined and measured following manufacturer’s instructions and results are the average of two assays.
LP preparations were pre-warmed for 30 min at 37 °C, and added to the cultures at 20 μl per well. In inhibition experiments, different SALP were added directly after LPS/LP/LTA administration.
Since the data of the stimulation of human MNC by the bacterial and synthetic LP was taken over a time period of more than 6 years, the TNFα production lead to considerable variations due to different batches of LP and of Pep19-2.5, and in particular due to variations resulting from blood samples of different donors. Because the main emphasis laid here is the efficiency of the peptide to inhibit the cytokine production, most figures describe the inhibition efficieny of the peptide in %, by presenting the means ± SEM of at least 3 independent experiments. The absolute values of the cytokine production, where of note, is given separately in the text.

[1] = active LP adopt non-lamellar aggregates, inactive a lamellar aggregate structure; cited from earlier work
Text: Similar arguments regarding the bioactive conical conformation of ...

human TLR2 = test: IL-8 production in HEK293 cells transfected with TLR2; type: cell-based; conditions: HEK293, 18 hours stimulation, relatively high LP concentrations; ELISA
Experimental: For HEK cell activation, human IL-8 was determined by sandwich enzyme-linked immunosorbent assay using IL-8 cytoset from BIOSOURCE (Life Technologies GmbH, Darmstadt Germany) exactly according to the manufacturer’s protocol. For transient transfection, HEK293 cells were plated at a density of 2.5 × 10^4/well in 96-well plates in Dulbecco’s modified Eagle’s medium (PAA, Pasching, Germany). The following day, cells were transfected using Lipofectamine (Life technologies) according to the manufacturer’s protocol. Expression plasmid containing the FLAG-tagged version of human TLR2 was a kind gift from P. Nelson, Seattle, WA and subcloned into pREP9 (Life Technologies). TLR2 plasmid was used at 100 ng/transfection. After 24 hours of transfection, cells were washed and stimulated for 18 hours with indicated compounds and positive controls. Finally, supernatants were collected and the interleukin-8 content was quantified using a commercial ELISA (Life technologies).
Data shown are the mean ± S.D. of triplicate samples of one experiment and representative of two independent experiments.

TLR4 = test: IL-8 production in HEK cells transfected with a TLR4 expression vector; type: cell-based; conditions: for IL-8 in TLR4-transfected cells: HEK cells, ELISA
human MNCs = conditions: cited from earlier work
Text: In this section, we first present in vitro data on the production of pro-inflammatory cytokines by human cells in response to LP or LTA from different origin and its neutralization by SALP. Then, we used a mouse model of acute toxemia to characterize the in vivo expression of those cytokines and to study if SALP can protect animals against lethal LP-induced sepsis.

Balb/C mice [2] = test: Serum cytokine response in mice after intraperitoneal inoculation; type: in vivo, mouse; conditions: 40 μg FSL-1 i.p.
Experimental: (§1) Seven-week-old female SPF-free Balb/C mice of 20 g of body weight, approximately, were purchased from Harlan Spain (Harlan Interfauna Iberica S.A., Barcelona, Spain) and randomly distributed in experimental groups (at least 4 animals per group except for the determination of lethal dose (n = 3)). Sample size was calculated based on previous results with the same animal model. Animals were housed in individually ventilated cages (5 mice per cage) bedded with hardwood bedding. Mice were provided ad libitum access to feed and water and lighting was adjusted to a 14-hour light/10-hour dark cycle. During the experiments, the condition of the animals was monitored daily every 4 hours and animals displaying persistent motor ataxia and hunched posture were euthanized.
To study if FSL-1 had pro-inflammatory cytokine-inducing activity, animals were intraperitoneally inoculated with 40 μg of FSL-1 resuspended in 200 μl of pyrogen-free saline. Blood samples were taken both at 1.5 h or 4 h after FSL-1 challenge to measure TNFα and IL-6 levels. For this purpose, mice were anesthetised, a blood sample was obtained by the retroorbital plexus and serum cytokine levels were measured using Quantikine Immunoassays kits (R&D systems, Minneapolis, USA) following manufacturer’s instructions. Differences between groups were statistically analyzed using the Mann-Whitney U test.
To evaluate the ability of Aspidasept® to neutralize the FSL-1 induced pro-inflammatory cytokines, a group of animals received by the intraperitoneal route first 40 μg of FSL-1 and then 400 μg of the drug resuspended in 100 μl of pyrogen-free saline. This second injection was administered immediately after FSL-1 challenge at a different site of the peritoneum. TNFα and IL-6 levels were measured (see above) at 1.5 h or 4 h after challenge, respectively, coinciding with the peak of cytokine secretion, as determined in preliminary experiments.

rats = conditions: ref Hübschle et al. 39; cited from earlier work
Text: (§2) Whereas for Gram-negative species the major inflammation- and sepsis-inducing compounds are endotoxins, the responsible compounds for endotoxin-free organisms (Gram-positive bacteria, fungi, mycoplasma, some Gram-negative bacteria) are poorly described or unknown. From the present data, however, it appears to be that LP are the decisive compounds for inflammation- a ...

guinea pigs = conditions: ref Greis et al. 40; cited from earlier work
Text: as §2

Balb/C mice [3] = test: Lethal toxemia in galactosamine-sensitized mice; type: in vivo, mouse; conditions: for physical activity / survival score of each animal: n = 3, one score per animal
Experimental: as §1
To determine the lethal dose of FSL-1 in mice, the method of Galanos and collaborators[48] was followed with some modifications. Briefly, animals were intraperitoneally inoculated with increasing amounts of FSL-1 (50 ng, 500 ng, 5 μg and 50 μg) supplemented with 18 mg of D-galactosamine in a final volume of 200 μl of pyrogen-free saline. Galactosamine is known to sensitize mice to pro-inflammatory compounds such as LPS, thus making it possible to use lower amounts of the stimulatory drug[46]. The ability of Aspidasept® to protect mice from FSL-1 dependent lethal toxemia was assessed by co-administering FSL-1 (4 μg/mouse) with D-galactosamine (18 mg/mouse) intraperitoneally.
Results were globally analyzed by means of a Kaplan-Meier survival analysis (SPSS 15.0). When the survival plots were parallel, the data were compared by the log-rank test, whereas the Breslow-Gehan-Wilcoxon test was applied when the plots intersected.

macrophages = conditions: LP 19 KDa from M. tuberculosis; cited from earlier work
Text: When adding the polycationic polymyxin B (PMB), a traditional AMP[43] to the shortened 19 KDa LP, a similar lack of interaction was observed.

[4] = target: T1, FSL-1 (fibroblast-stimulating lipopeptide) (Mycoplasma salivarium); test: ITC; lipopeptide 0.05 mM dispersion in the cell (1.5 ml); peptide 1 mM titrated in 3 μl aliquots every 5 min; 37 °C; MCS calorimeter; conditions: both partners purified
T1 construct: the first C stands for the lipidated cysteine; Shortened analogue of the 44-kDa lipoprotein LP44 of Mycoplasma salivarium, its N-terminal part; stood in the assays as an aggregate dispersion of the lipopeptide; also called LP FSL-1; source: synthetic lipopeptide, EMC microcollections GmbH (Tübingen)
T1 peptide: [Pam2Cys]GDPKHPKSF

Molecule: Pam3Cys-SKKKK [Pam3CSK4, reference compound]
- activation of MNC at 1 ng/ml (human mononuclear cells; 1 ng/ml, data not shown): not
- activation of MNC at 10 ng/ml (human mononuclear cells; 10 ng/ml, data not shown): some activation takes place
- stimulation of MNC (TNFα induction) compared with LPS (human mononuclear cells): markedly lower level than LPS
- biological activity [1]: biologically active
- IL-8 secreting activity in TLR-2 transfected cells (human TLR2): considerable IL-8 secreting activity

Molecule: Pam2Cys-GNNDESNISFKEK [MALP-2, reference compound]
- stimulation of MNC (TNFα induction) compared with LPS (human mononuclear cells): similarly active

Molecule: Pam3Cys-SQEPAAPAAEATPAG [LP H8, synthetic triacyl LP, shortened analogue of LP blp NG from Neisseria gonorrhoeae]
- IL-8 in TLR4-transfected cells (TLR4): nearly no IL-8 signal
- TNFα when adding 100 ng/ml of LP (human mononuclear cells; data not shown): no detectable amounts
- concentration necessary to induce an observable TNFα secretion (human mononuclear cells; data not shown): 10 µg/mL
- IL-8 secreting activity in TLR-2 transfected cells (human TLR2): considerable IL-8 secreting activity

Molecule: Pam2CSK4
- biological activity [1]: biologically active

Molecule: GRRYKKFRWKFKGRWFWFG [Pep19–8, synthetic anti-LPS peptide (SALP)]
- inhibition efficiency in the biological experiments (human MNCs): low

Molecule: Pam2Cys-GDPKHPKSF [FSL-1, fibroblast-stimulating lipopeptide, synthetic diacyl LP, shortened analogue of the 44-kDa LP LP44 of Mycoplasma salivarium]
- time of peak serum IL-6 level (Balb/C mice [2]; data not shown): 4 h
- time of peak serum TNFα level (Balb/C mice [2]; data not shown): 90 min
- serum TNFα response (Balb/C mice [2]; n = 4, 1.5 h): potent
- serum IL-6 response (Balb/C mice [2]; n = 4, 4 h): potent
- stimulation of MNC (TNFα induction) compared with LPS (human mononuclear cells): potency similar to that of LPS; also recorded: similarly active
- in vivo biological activity (rats): High
- in vivo biological activity (guinea pigs): High
- physical activity / survival score of each animal (Balb/C mice [3]; 500 ng FSL-1 i.p. + D-galactosamine 18 mg/mouse, 24 hours): † † †
- physical activity / survival score of each animal (Balb/C mice [3]; 500 ng FSL-1 i.p. + D-galactosamine 18 mg/mouse, 48 hours): † † †
- time to symptoms of sepsis (reduced motor activity, lethargy, shivering, piloerection) (Balb/C mice [3]; 4 μg FSL-1 i.p. + D-galactosamine 18 mg/mouse): ≤ 120 min
- physical activity / survival score of each animal (Balb/C mice [3]; 5 μg FSL-1 i.p. + D-galactosamine 18 mg/mouse, 24 hours): † † †
- physical activity / survival score of each animal (Balb/C mice [3]; 5 μg FSL-1 i.p. + D-galactosamine 18 mg/mouse, 48 hours): † † †
- physical activity / survival score of each animal (Balb/C mice [3]; 50 μg FSL-1 i.p. + D-galactosamine 18 mg/mouse, 24 hours): † † †
- physical activity / survival score of each animal (Balb/C mice [3]; 50 μg FSL-1 i.p. + D-galactosamine 18 mg/mouse, 48 hours): † † †
- amount necessary to kill 100% of the animals in 48 h (LD100) (Balb/C mice [3]; galactosamine-sensitized Balb/C mice, i.p., n = 3 per dose): 500 ng/mouse
- LD100 relative to the equivalent LD100 of Salmonella minnesota LPS (Balb/C mice [3]; identical experimental conditions, LPS value from ref 24): 10 times higher

Molecule: Pam3Cys-KQNVSSLDEKNSVSV [LP OspA, synthetic triacyl LP, shortened analogue of OspA from Borrelia burgdorferi]
- IL-8 in TLR4-transfected cells (TLR4): nearly no IL-8 signal
- IL-8 secreting activity in TLR-2 transfected cells (human TLR2): considerable IL-8 secreting activity

Molecule: Pam3Cys-NNSGKDGNTSANSAD [LP OspC, synthetic triacyl LP, shortened analogue of OspC from Borrelia burgdorferi]
- IL-8 in TLR4-transfected cells (TLR4): nearly no IL-8 signal
- IL-8 secreting activity in TLR-2 transfected cells (human TLR2): considerable IL-8 secreting activity

Molecule: GKKYRRFRWKFKGKWFWFG [Pep19–4, synthetic anti-LPS peptide (SALP)]
- inhibition efficiency in the biological experiments (human MNCs): moderate

Molecule: GCRRFKKFKKWRYRGRFWFWCFG [Pep19–12]
- inhibition of Pam3CSK4-induced cytokine (TNFα) production (human mononuclear cells; stimulus Pam3CSK4 1000, 100, 10 ng/ml, [LP]:[Pep] up to 1:100 weight%): no or only a small inhibition

Molecule: polymyxin B
- inhibition of the stimulation of macrophages by the shortened 19 KDa LP (macrophages): lack of biological inhibition

Molecule: Pam3Cys-SSSNNDAAGNGAAQT [LP P6, synthetic triacyl LP, shortened analogue of protein P6 from Haemophilus influenzae]
- IL-8 in TLR4-transfected cells at high concentration (TLR4; 10 μg/ml): significant amounts of IL-8
- TNFα when adding 100 ng/ml of LP (human mononuclear cells; data not shown): no detectable amounts
- concentration necessary to induce an observable TNFα secretion (human mononuclear cells; data not shown): 10 µg/mL
- IL-8 secreting activity in TLR-2 transfected cells (human TLR2): considerable IL-8 secreting activity

B1: Pep19-2.5 (Aspidasept^®) (peptide)
peptide: GCKKYRRFRWKFKGKFWFWG-NH2
notes: designed synthetic anti-LPS peptide, 20-mer; purity >95% (HPLC, MALDI-TOF); also called SALP; synthetic anti-LPS peptide; source: synthetic peptide; batches produced by BACHEM (Bubendorf, Switzerland)
- binding result [4]: binds
